What was measured:
T47D = experiment: Growth inhibition of human T47D cells at 10 uM incubated for 48 hrs by sulforhodamine B assay relative to control; format: functional; details: read-out: GI
A498 = experiment: Growth inhibition of human A498 cells at 10 uM incubated for 48 hrs by sulforhodamine B assay relative to control; format: functional; details: A498, 48 h, read-out: GI
UO-31 = experiment: Growth inhibition of human UO31 cells at 10 uM incubated for 48 hrs by sulforhodamine B assay relative to control; format: functional; details: UO-31, 48 h, read-out: GI
HT-29 = experiment: Growth inhibition of human HT-29 cells at 10 uM incubated for 48 hrs by sulforhodamine B assay relative to control; format: functional; details: HT-29, 48 h, read-out: GI
786-0 = experiment: Growth inhibition of human 786-0 cells at 10 uM incubated for 48 hrs by sulforhodamine B assay relative to control; format: functional; details: 786-0, 48 h, read-out: GI
OVCAR-8 = experiment: Growth inhibition of human OVCAR8 cells at 10 uM incubated for 48 hrs by sulforhodamine B assay relative to control; format: functional; details: OVCAR-8, 48 h, read-out: GI
OVCAR-4 = experiment: Growth inhibition of human OVCAR4 cells at 10 uM incubated for 48 hrs by sulforhodamine B assay relative to control; format: functional; details: OVCAR-4, 48 h, read-out: GI
SK-MEL-5 = experiment: Growth inhibition of human SK-MEL-5 cells at 10 uM incubated for 48 hrs by sulforhodamine B assay relative to control; format: functional; details: SK-MEL-5, 48 h, read-out: GI
Carbonic anhydrase 9 [1] = molecular target: T1, Carbonic anhydrase 9 (Homo sapiens, UniProt Q16790); experiment: Inhibition of recombinant human carbonic anhydrase 9 preincubated for 15 mins by phenol red dye based stopped flow CO2 hydration assay
HOP-92 = experiment: Growth inhibition of human HOP92 cells at 10 uM incubated for 48 hrs by sulforhodamine B assay relative to control; format: functional; details: HOP-92, 48 h, read-out: GI
CCRF-CEM = experiment: Growth inhibition of human CCRF-CEM cells at 10 uM incubated for 48 hrs by sulforhodamine B assay relative to control; format: functional; details: read-out: GI
PC-3 = experiment: Growth inhibition of human PC3 cells at 10 uM incubated for 48 hrs by sulforhodamine B assay relative to control; format: functional; details: PC-3, 48 h, read-out: GI
HCT-116 = experiment: Growth inhibition of human HCT116 cells at 10 uM incubated for 48 hrs by sulforhodamine B assay relative to control; format: functional; details: HCT-116, 48 h, read-out: GI
UACC-62 = experiment: Growth inhibition of human UACC62 cells at 10 uM incubated for 48 hrs by sulforhodamine B assay relative to control; format: functional; details: UACC-62, 48 h, read-out: GI
NCI-H226 = experiment: Growth inhibition of human NCI-H226 cells at 10 uM incubated for 48 hrs by sulforhodamine B assay relative to control; format: functional; details: NCI-H226, 48 h, read-out: GI
SW-620 = experiment: Growth inhibition of human SW620 cells at 10 uM incubated for 48 hrs by sulforhodamine B assay relative to control; format: functional; details: SW-620, 48 h, read-out: GI
CAKI-1 = experiment: Growth inhibition of human Caki1 cells at 10 uM incubated for 48 hrs by sulforhodamine B assay relative to control; format: functional; details: CAKI-1, 48 h, read-out: GI
DU-145 = experiment: Growth inhibition of human DU145 cells at 10 uM incubated for 48 hrs by sulforhodamine B assay relative to control; format: functional; details: DU-145, 48 h, read-out: GI
TK-10 = experiment: Growth inhibition of human TK10 cells at 10 uM incubated for 48 hrs by sulforhodamine B assay relative to control; format: functional; details: TK-10, 48 h, read-out: GI
UACC-257 = experiment: Growth inhibition of human UACC257 cells at 10 uM incubated for 48 hrs by sulforhodamine B assay relative to control; format: functional; details: UACC-257, 48 h, read-out: GI
RPMI-8226 = experiment: Growth inhibition of human RPMI8226 cells at 10 uM incubated for 48 hrs by sulforhodamine B assay relative to control; format: functional; details: RPMI-8226, 48 h, read-out: GI
NCI-H460 = experiment: Growth inhibition of human NCI-H460 cells at 10 uM incubated for 48 hrs by sulforhodamine B assay relative to control; format: functional; details: NCI-H460, 48 h, read-out: GI
U-251 = experiment: Growth inhibition of human U251 cells at 10 uM incubated for 48 hrs by sulforhodamine B assay relative to control; format: functional; details: U-251, 48 h, read-out: GI
BT-549 = experiment: Growth inhibition of human BT549 cells at 10 uM incubated for 48 hrs by sulforhodamine B assay relative to control; format: functional; details: BT-549, 48 h, read-out: GI
NCI-H522 = experiment: Growth inhibition of human NCI-H522 cells at 10 uM incubated for 48 hrs by sulforhodamine B assay relative to control; format: functional; details: NCI-H522, 48 h, read-out: GI
MDA-MB-231 = experiment: Growth inhibition of human MDA-MB-231 cells at 10 uM incubated for 48 hrs by sulforhodamine B assay relative to control; format: functional; details: MDA-MB-231, 48 h, read-out: GI
ACHN = experiment: Growth inhibition of human ACHN cells at 10 uM incubated for 48 hrs by sulforhodamine B assay relative to control; format: functional; details: read-out: GI
SN12C = experiment: Growth inhibition of human SN12C cells at 10 uM incubated for 48 hrs by sulforhodamine B assay relative to control; format: functional; details: read-out: GI
MDA-MB-468 = experiment: Growth inhibition of human MDA-MB-468 cells at 10 uM incubated for 48 hrs by sulforhodamine B assay relative to control; format: functional; details: MDA-MB-468, 48 h, read-out: GI
HCT-15 = experiment: Growth inhibition of human HCT15 cells at 10 uM incubated for 48 hrs by sulforhodamine B assay relative to control; format: functional; details: HCT-15, 48 h, read-out: GI
EKVX = experiment: Growth inhibition of human EKVX cells at 10 uM incubated for 48 hrs by sulforhodamine B assay relative to control; format: functional; details: read-out: GI
RXF 393 = experiment: Growth inhibition of human RXF393 cells at 10 uM incubated for 48 hrs by sulforhodamine B assay relative to control; format: functional; details: RXF 393, 48 h, read-out: GI
MCF7 = experiment: Growth inhibition of human MCF7 cells at 10 uM incubated for 48 hrs by sulforhodamine B assay relative to control; format: functional; details: MCF7, 48 h, read-out: GI
KM12 = experiment: Growth inhibition of human KM12 cells at 10 uM incubated for 48 hrs by sulforhodamine B assay relative to control; format: functional; details: KM12, 48 h, read-out: GI
SK-MEL-2 = experiment: Growth inhibition of human SK-MEL-2 cells at 10 uM incubated for 48 hrs by sulforhodamine B assay relative to control; format: functional; details: SK-MEL-2, 48 h, read-out: GI
NCI/ADR-RES = experiment: Growth inhibition of human NCI/ADR-RES cells at 10 uM incubated for 48 hrs by sulforhodamine B assay relative to control; format: functional; details: read-out: GI
A549 = experiment: Growth inhibition of human A549/ATCC cells at 10 uM incubated for 48 hrs by sulforhodamine B assay relative to control; format: functional; details: A549, 48 h, read-out: GI
SNB-19 = experiment: Growth inhibition of human SNB19 cells at 10 uM incubated for 48 hrs by sulforhodamine B assay relative to control; format: functional; details: SNB-19, 48 h, read-out: GI
Carbonic anhydrase 9 [2] = molecular target: T1, Carbonic anhydrase 9; experiment: Inhibition of human recombinant carbonic anhydrase 9 by stopped flow CO2 hydration assay
SF-539 = experiment: Growth inhibition of human SF539 cells at 10 uM incubated for 48 hrs by sulforhodamine B assay relative to control; format: functional; details: SF-539, 48 h, read-out: GI
OVCAR-5 = experiment: Growth inhibition of human OVCAR5 cells at 10 uM incubated for 48 hrs by sulforhodamine B assay relative to control; format: functional; details: OVCAR-5, 48 h, read-out: GI
Hs-578T = experiment: Growth inhibition of human Hs 578T cells at 10 uM incubated for 48 hrs by sulforhodamine B assay relative to control; format: functional; details: read-out: GI
SNB-75 = experiment: Growth inhibition of human SNB75 cells at 10 uM incubated for 48 hrs by sulforhodamine B assay relative to control; format: functional; details: SNB-75, 48 h, read-out: GI
MOLT-4 = experiment: Growth inhibition of human MOLT4 cells at 10 uM incubated for 48 hrs by sulforhodamine B assay relative to control; format: functional; details: MOLT-4, 48 h, read-out: GI
Carbonic anhydrase 1 = Carbonic anhydrase 1 (Homo sapiens, UniProt P00915); experiment: Inhibition of recombinant human carbonic anhydrase 1 preincubated for 15 mins by phenol red dye based stopped flow CO2 hydration assay
Chain of Carbonic anhydrase 1 (P00915 whole entry): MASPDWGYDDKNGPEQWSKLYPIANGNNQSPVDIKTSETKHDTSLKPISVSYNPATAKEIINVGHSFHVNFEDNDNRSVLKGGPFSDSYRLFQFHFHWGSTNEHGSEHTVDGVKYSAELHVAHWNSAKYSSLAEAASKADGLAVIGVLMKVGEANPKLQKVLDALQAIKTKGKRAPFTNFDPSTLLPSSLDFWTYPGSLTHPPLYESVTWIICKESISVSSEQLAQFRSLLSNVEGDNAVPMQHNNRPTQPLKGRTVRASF

SR = experiment: Growth inhibition of human SR cells at 10 uM incubated for 48 hrs by sulforhodamine B assay relative to control; format: functional; details: read-out: GI
SF-268 = experiment: Growth inhibition of human SF268 cells at 10 uM incubated for 48 hrs by sulforhodamine B assay relative to control; format: functional; details: SF-268, 48 h, read-out: GI

| SMILES | inhibition of growth at 10 µM (T47D) [%] | inhibition of growth at 10 µM (UO-31) [%] | inhibition of growth at 10 µM (786-0) [%] | inhibition of growth at 10 µM (OVCAR-8) [%] | inhibition of growth at 10 µM (OVCAR-4) [%] | inhibition of growth at 10 µM (SK-MEL-5) [%] | Ki (Carbonic anhydrase 9 [1]) [nM] | inhibition of growth at 10 µM (CCRF-CEM) [%] | inhibition of growth at 10 µM (PC-3) [%] | inhibition of growth at 10 µM (HCT-116) [%] | inhibition of growth at 10 µM (UACC-62) [%] | inhibition of growth at 10 µM (NCI-H226) [%] | inhibition of growth at 10 µM (CAKI-1) [%] | inhibition of growth at 10 µM (RPMI-8226) [%] | inhibition of growth at 10 µM (NCI-H460) [%] | inhibition of growth at 10 µM (NCI-H522) [%] | inhibition of growth at 10 µM (MDA-MB-231) [%] | inhibition of growth at 10 µM (ACHN) [%] | inhibition of growth at 10 µM (MDA-MB-468) [%] | inhibition of growth at 10 µM (RXF 393) [%] | further results |
| --- | --- | --- | --- | --- | --- | --- | --- | --- | --- | --- | --- | --- | --- | --- | --- | --- | --- | --- | --- | --- | --- |
| NS(=O)(=O)c1ccc(N/N=C2\C(=O)N(Cc3ccccc3)c3ccccc32)cc1 | 42 | 38 | 22 | 17 | 21 | 12 | 27.7 | 36 | 25 | 28 | 37 | 21 | 20 | 38 | 20 | 46 | 19 | 14 | 27 | 10 | inhibition of growth at 10 µM (A498): 10%; inhibition of growth at 10 µM (HT-29): 21%; inhibition of growth at 10 µM (HOP-92): 34%; inhibition of growth at 10 µM (SW-620): 18%; inhibition of growth at 10 µM (DU-145): 10%; inhibition of growth at 10 µM (TK-10): 19%; inhibition of growth at 10 µM (UACC-257): 11%; inhibition of growth at 10 µM (U-251): 17%; inhibition of growth at 10 µM (BT-549): 16%; inhibition of growth at 10 µM (SN12C): 19%; inhibition of growth at 10 µM (HCT-15): 13%; inhibition of growth at 10 µM (EKVX): 13%; inhibition of growth at 10 µM (MCF7): 21%; inhibition of growth at 10 µM (KM12): 10%; inhibition of growth at 10 µM (SK-MEL-2): 13%; inhibition of growth at 10 µM (NCI/ADR-RES): 20%; inhibition of growth at 10 µM (A549): 25%; inhibition of growth at 10 µM (SNB-19): 13% |
| NS(=O)(=O)c1ccc(CC/N=C2\NC(=O)/C(=C3/C(=O)Nc4ccc(F)cc43)S2)cc1 | – | – | – | – | – | – | – | – | – | – | – | – | – | – | – | – | – | – | – | – | Ki (Carbonic anhydrase 9 [2]): 287 nM |
| NS(=O)(=O)c1ccc(N/N=C2\C(=O)N(Cc3ccccc3)c3ccc(Br)cc32)cc1 | 19 | 18 | 19 | 26 | 19 | 17 | 60.5 | 19 | 21 | 24 | 30 | 33 | 18 | 10 | 20 | 29 | 23 | 22 | 13 | 38 | inhibition of growth at 10 µM (SF-539): 25%; inhibition of growth at 10 µM (OVCAR-5): 12%; inhibition of growth at 10 µM (Hs-578T): 27%; inhibition of growth at 10 µM (SNB-75): 46%; inhibition of growth at 10 µM (MOLT-4): 21%; Ki (Carbonic anhydrase 1): > 10000 nM; inhibition of growth at 10 µM (SR): 20%; inhibition of growth at 10 µM (MCF7): 23%; inhibition of growth at 10 µM (NCI/ADR-RES): 13%; inhibition of growth at 10 µM (A549): 19%; inhibition of growth at 10 µM (SF-268): 13%; inhibition of growth at 10 µM (SNB-19): 27% |

Reference: ChEMBL document CHEMBL4311999, “3-Hydrazinoisatin-based benzenesulfonamides as novel carbonic anhydrase inhibitors endowed with anticancer activity: Synthesis, in vitro biological evaluation and in silico insights” (Eur J Med Chem, 2019)
